Assay results reported in patent publication US7517874B2 (priority 2007, dated 2009).
pEC50: −log10 of the molar value. Like-named read-outs stand apart in the source and are kept apart here.

How the values were obtained:
rat CB2 receptor (rCB2) = biological target: T1, rat CB2 receptor (rCB2) (Rattus norvegicus, UniProt Q9QZN9); experiment: cell-based; type: cell-based; settings: for +/− RCB2: agonist or inverse agonist at rCB2; for EC50: groups >100 nM-10 μM and >10 μM, cAMP, CHO-K1 rCB2, read-out: EC50 RCB2
T1 sequence (Q9QZN9 1-360): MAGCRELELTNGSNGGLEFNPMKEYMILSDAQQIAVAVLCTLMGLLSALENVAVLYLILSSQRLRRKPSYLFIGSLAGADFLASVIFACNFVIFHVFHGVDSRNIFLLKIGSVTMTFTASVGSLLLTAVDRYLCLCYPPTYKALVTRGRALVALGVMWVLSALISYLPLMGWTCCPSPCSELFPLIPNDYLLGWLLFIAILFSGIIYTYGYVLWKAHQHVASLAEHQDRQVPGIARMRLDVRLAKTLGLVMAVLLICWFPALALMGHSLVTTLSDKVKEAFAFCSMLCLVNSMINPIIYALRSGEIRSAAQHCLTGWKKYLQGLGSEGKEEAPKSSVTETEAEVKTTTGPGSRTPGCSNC
Summary of the method: (§1)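 Agonism or inverse agonism was assessed as change in intracellular cAMP in CHO-K1 cells expressing human CB1 or rat CB2 (genomic DNA, pcDNA3.1).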

[1] = biological target: human CB1 receptor (hCB1) (Homo sapiens, UniProt P21554); experiment: cell-based; type: cell-based; settings: for EC50: groups >100 nM-10 μM and >10 μM, cAMP, CHO-K1 hCB1, read-out: EC50 HCB1
Summary of the method: as §1

Sequence of human CB1 receptor (hCB1) (P21554 whole entry): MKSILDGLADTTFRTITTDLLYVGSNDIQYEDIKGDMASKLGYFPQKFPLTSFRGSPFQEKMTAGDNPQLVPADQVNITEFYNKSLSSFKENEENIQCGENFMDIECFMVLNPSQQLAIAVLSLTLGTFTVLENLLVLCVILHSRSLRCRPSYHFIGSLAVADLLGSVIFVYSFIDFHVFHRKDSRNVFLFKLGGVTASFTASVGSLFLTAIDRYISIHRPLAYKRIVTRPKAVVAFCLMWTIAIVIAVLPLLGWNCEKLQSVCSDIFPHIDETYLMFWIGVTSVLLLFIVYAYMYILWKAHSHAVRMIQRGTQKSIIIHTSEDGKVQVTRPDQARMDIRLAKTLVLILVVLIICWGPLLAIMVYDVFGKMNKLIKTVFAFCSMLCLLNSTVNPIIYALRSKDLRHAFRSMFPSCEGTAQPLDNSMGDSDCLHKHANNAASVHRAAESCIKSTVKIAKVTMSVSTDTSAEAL

Cc1noc([C@@H](NC(=O)c2nc(-c3ccccc3)n3c2CN(CC2CC2)CC3)C(C)(C)C)n1 [Compound 88, (S)-7-(cyclopropylmethyl)-N-(2,2-dimethyl-1-(3-methyl-1,2,4-oxadiazol-5-yl)propyl)-3-phenyl-5,6,7,8-tetrahydroimidazo[1,5-a]pyrazine-1-carboxamide]
+/− RCB2 (rat CB2 receptor (rCB2)): −
pEC50 [1]: < 5.00

CN1CCCn2c(-c3ccccc3)nc(C(=O)Nc3nc(C(C)(C)C)cs3)c2C1 [Compound 596, N-(4-tert-butylthiazol-2-yl)-8-methyl-3-phenyl-6,7,8,9-tetrahydro-5H-imidazo[1,5-a][1,4]diazepine-1-carboxamide]
EC50 (rat CB2 receptor (rCB2)): > 10000 nM
EC50 [1]: > 10000 nM

CNC(=O)[C@@H](NC(=O)c1nc(-c2csc3ccccc23)n2c1CN(C)CC2)C(C)(C)C [Compound 75, (S)-3-(benzo[b]thiophen-3-yl)-N-(3,3-dimethyl-1-(methylamino)-1-oxobutan-2-yl)-7-methyl-5,6,7,8-tetrahydroimidazo[1,5-a]pyrazine-1-carboxamide]
+/− RCB2 (rat CB2 receptor (rCB2)): +
pEC50 [1]: < 5.00

CNC(=O)[C@@H](NC(=O)c1nc(-c2ccsc2)n2c1CNCC2)C(C)(C)C [Compound 11, (S)-N-(3,3-dimethyl-1-(methylamino)-1-oxobutan-2-yl)-3-(thiophen-3-yl)-5,6,7,8-tetrahydroimidazo[1,5-a]pyrazine-1-carboxamide]
+/− RCB2 (rat CB2 receptor (rCB2)): +
pEC50 [1]: < 5.00

CC(=O)N1CCn2c(-c3ccccc3)nc(C(=O)NN3CCCCC3)c2C1 [Compound 175, 7-acetyl-3-phenyl-N-(piperidin-1-yl)-5,6,7,8-tetrahydroimidazo[1,5-a]pyrazine-1-carboxamide]
pEC50 (rat CB2 receptor (rCB2)): < 5.00
pEC50 [1]: < 5.00

CNC(=O)[C@@H](NC(=O)c1nc(Cc2ccccc2)n2c1CNCC2)C(C)(C)C [Compound 13, (S)-3-benzyl-N-(3,3-dimethyl-1-(methylamino)-1-oxobutan-2-yl)-5,6,7,8-tetrahydroimidazo[1,5-a]pyrazine-1-carboxamide]
pEC50 (rat CB2 receptor (rCB2)): < 5.00
pEC50 [1]: < 5.00

CC(C)CN1CCn2c(-c3ccccc3)nc(C(=O)Nc3ccccc3)c2C1 [Compound 150, 7-isobutyl-N,3-diphenyl-5,6,7,8-tetrahydroimidazo[1,5-a]pyrazine-1-carboxamide]
+/− RCB2 (rat CB2 receptor (rCB2)): −
pEC50 [1]: < 5.00

CNC(=O)[C@@H](NC(=O)c1nc(-c2ccccc2)n2c1CN(C)CCC2)c1ccccc1 [Compound 543, (S)-8-methyl-N-(2-(methylamino)-2-oxo-1-phenylethyl)-3-phenyl-6,7,8,9-tetrahydro-5H-imidazo[1,5-a][1,4]diazepine-1-carboxamide]
+/− RCB2 (rat CB2 receptor (rCB2)): +
pEC50 [1]: < 5.00

CNC(=O)c1ccc(NC(=O)c2nc(-c3ccc(Cl)cc3F)n3c2CN(C)CC3)cc1 [Compound 218]
EC50 (rat CB2 receptor (rCB2)): > 10000 nM
EC50 [1]: > 10000 nM

CN1CCn2c(-c3ccc(Cl)cc3F)nc(C(=O)N3CCC4(CC3)C(=O)NCN4c3ccccc3)c2C1 [Compound 214, 8-(3-(4-chloro-2-fluorophenyl)-7-methyl-5,6,7,8-tetrahydroimidazo[1,5-a]pyrazine-1-carbonyl)-1-phenyl-1,3,8-triazaspiro[4.5]decan-4-one]
+/− RCB2 (rat CB2 receptor (rCB2)): −
pEC50 [1]: < 5.00

COC(=O)[C@@H](NC(=O)c1nc(-c2ccccc2)n2c1CNCCC2)C(C)(C)C [Compound 465, (S)-methyl 3,3-dimethyl-2-(3-phenyl-6,7,8,9-tetrahydro-5H-imidazo[1,5-a][1,4]diazepine-1-carboxamido)butanoate]
+/− RCB2 (rat CB2 receptor (rCB2)): +
pEC50 [1]: < 5.00

CC(=O)N1CCn2c(-c3ccccc3)nc(C(=O)NC3CCCCC3)c2C1 [Compound 177, 7-acetyl-N-cyclohexyl-3-phenyl-5,6,7,8-tetrahydroimidazo[1,5-a]pyrazine-1-carboxamide]
+/− RCB2 (rat CB2 receptor (rCB2)): −
pEC50 [1]: < 5.00

CNC(=O)[C@H](C)NC(=O)c1nc(-c2ccccc2)n2c1CN(Cc1cncnc1)CC2 [Compound 77, (S)-N-(1-(methylamino)-1-oxopropan-2-yl)-3-phenyl-7-(pyrimidin-5-ylmethyl)-5,6,7,8-tetrahydroimidazo[1,5-a]pyrazine-1-carboxamide]
pEC50 (rat CB2 receptor (rCB2)): < 5.00
pEC50 [1]: < 5.00

CNC(=O)[C@@H](NC(=O)c1nc(-c2ccccc2)n2c1CN(C(=O)NC(C)(C)C)CC2)C(C)(C)C [Compound 192, (S)-N7-tert-butyl-N1-(3,3-dimethyl-1-(methylamino)-1-oxobutan-2-yl)-3-phenyl-5,6-dihydroimidazo[1,5-a]pyrazine-1,7(8H)-dicarboxamide]
+/− RCB2 (rat CB2 receptor (rCB2)): −
pEC50 [1]: < 5.00

CNC(=O)[C@H](CC(C)(C)C)NC(=O)c1nc(-c2cc(F)c(F)cc2F)n2c1CN(C)CCC2 [Compound 555, (S)-N-(4,4-dimethyl-1-(methylamino)-1-oxopentan-2-yl)-8-methyl-3-(2,4,5-trifluorophenyl)-6,7,8,9-tetrahydro-5H-imidazo[1,5-a][1,4]diazepine-1-carboxamide]
+/− RCB2 (rat CB2 receptor (rCB2)): +
+/− HCB1 ([1]; agonist or inverse agonist at hCB1): +

CNC(=O)[C@@H](NC(=O)c1nc(-c2cc(Cl)ccc2OC)n2c1CN(C)CCC2)C(C)(C)C [Compound 327, (S)-3-(5-chloro-2-methoxyphenyl)-N-(3,3-dimethyl-1-(methylamino)-1-oxobutan-2-yl)-8-methyl-6,7,8,9-tetrahydro-5H-imidazo[1,5-a][1,4]diazepine-1-carboxamide]
+/− RCB2 (rat CB2 receptor (rCB2)): +
pEC50 [1]: < 5.00

CN1CCn2c(-c3ccccc3)nc(C(=O)N[C@H](C(=O)N(C)C)C(C)(C)C)c2C1 [Compound 79, (S)-N-(1-(dimethylamino)-3,3-dimethyl-1-oxobutan-2-yl)-7-methyl-3-phenyl-5,6,7,8-tetrahydroimidazo[1,5-a]pyrazine-1-carboxamide]
+/− RCB2 (rat CB2 receptor (rCB2)): −
pEC50 [1]: < 5.00

CNC(=O)[C@@H](NC(=O)c1nc(-c2cccs2)n2c1CN(C)CCC2)C(C)(C)C [Compound 349, (S)-N-(3,3-dimethyl-1-(methylamino)-1-oxobutan-2-yl)-8-methyl-3-(thiophen-2-yl)-6,7,8,9-tetrahydro-5H-imidazo[1,5-a][1,4]diazepine-1-carboxamide]
+/− RCB2 (rat CB2 receptor (rCB2)): +
pEC50 [1]: < 5.00

CNC(=O)[C@@H](NC(=O)c1nc(-c2ccccc2)n2c1CN(Cc1cncnc1)CC2)C(C)(C)C [Compound 62, (S)-N-(3,3-dimethyl-1-(methylamino)-1-oxobutan-2-yl)-3-phenyl-7-(pyrimidin-5-ylmethyl)-5,6,7,8-tetrahydroimidazo[1,5-a]pyrazine-1-carboxamide]
+/− RCB2 (rat CB2 receptor (rCB2)): −
pEC50 [1]: < 5.00

CNC(=O)[C@@H](NC(=O)c1nc(C(O)C2CC2)n2c1CN(C)CC2)C(C)(C)C (stereo partly drawn) [Compound 296, 3-(cyclopropyl(hydroxy)methyl)-N-((S)-3,3-dimethyl-1-(methylamino)-1-oxobutan-2-yl)-7-methyl-5,6,7,8-tetrahydroimidazo[1,5-a]pyrazine-1-carboxamide]
+/− RCB2 (rat CB2 receptor (rCB2)): +
pEC50 [1]: < 5.00

CC(C)(C)OC(=O)N1CCn2c(-c3ccccc3)nc(C(=O)NCC3CCOCC3)c2C1 [Compound 38, tert-butyl 3-phenyl-1-((tetrahydro-2H-pyran-4-yl)methylcarbamoyl)-5,6-dihydroimidazo[1,5-a]pyrazine-7(8H)-carboxylate]
+/− RCB2 (rat CB2 receptor (rCB2)): −
EC50 [1]: > 10000 nM

CNC(=O)[C@H](CC(C)(C)C)NC(=O)c1nc(-c2ccc(Cl)c(F)c2)n2c1CN(C)CCC2 [Compound 550, (S)-3-(4-chloro-3-fluorophenyl)-N-(4,4-dimethyl-1-(methylamino)-1-oxopentan-2-yl)-8-methyl-6,7,8,9-tetrahydro-5H-imidazo[1,5-a][1,4]diazepine-1-carboxamide]
+/− RCB2 (rat CB2 receptor (rCB2)): −
pEC50 [1]: < 5.00

CNC(=O)[C@@H](NC(=O)c1nc(-c2cncnc2)n2c1CNCC2)C(C)(C)C [Compound 19, (S)-N-(3,3-dimethyl-1-(methylamino)-1-oxobutan-2-yl)-3-(pyrimidin-5-yl)-5,6,7,8-tetrahydroimidazo[1,5-a]pyrazine-1-carboxamide]
pEC50 (rat CB2 receptor (rCB2)): < 5.00
pEC50 [1]: < 5.00

CCN(CC)C/C=C/c1nc(C(=O)N[C@H](C(=O)NC)C(C)(C)C)c2n1CCCN(C)C2 [Compound 512, (S,E)-3-(3-(diethylamino)prop-1-enyl)-N-(3,3-dimethyl-1-(methylamino)-1-oxobutan-2-yl)-8-methyl-6,7,8,9-tetrahydro-5H-imidazo[1,5-a][1,4]diazepine-1-carboxamide]
pEC50 (rat CB2 receptor (rCB2)): < 5.00
pEC50 [1]: < 5.00

CN1CCCn2c(-c3ccccc3)nc(C(=O)N[C@H](C(=O)NC3CC3)C(C)(C)C)c2C1 [Compound 477, (S)-N-(1-(cyclopropylamino)-3,3-dimethyl-1-oxobutan-2-yl)-8-methyl-3-phenyl-6,7,8,9-tetrahydro-5H-imidazo[1,5-a][1,4]diazepine-1-carboxamide]
+/− RCB2 (rat CB2 receptor (rCB2)): +
pEC50 [1]: < 5.00

CC(C)CN1CCn2c(-c3ccccc3)nc(C(=O)N[C@H](C)C(C)(C)C)c2C1 [Compound 52, (R)-N-(3,3-dimethylbutan-2-yl)-7-isobutyl-3-phenyl-5,6,7,8-tetrahydroimidazo[1,5-a]pyrazine-1-carboxamide]
+/− RCB2 (rat CB2 receptor (rCB2)): −
pEC50 [1]: < 5.00
